Values of other authors, collected in EP1577823B1, “A method for identifying unknown proteins by a two-dimensional separation step and the use of markers” (CENTRE NATIONAL DE LA RECHERCHE SCIENTIFIQUE (CNRS), priority 2004, dated 2005).

conditions: pKa value of the positively or negatively charged amino acid side chain

Row | SMILES | pKR
1 | N[C@@H](CCC(=O)O)C(=O)O [Glutamic acid] | 4,3
2 | NCCCC[C@H](N)C(=O)O [Lysine] | 10,8
3 | N[C@@H](CS)C(=O)O [Cysteine] | 8,3
4 | N=C(N)NCCC[C@H](N)C(=O)O [Arginine] | 12,5

Next, values leading:

Row | pKR | SMILES
5 | 13 | N[C@@H](CO)C(=O)O [Serine]
6 | 10,1 | N[C@@H](Cc1ccc(O)cc1)C(=O)O [Tyrosine]
7 | 6 | N[C@@H](Cc1c[nH]cn1)C(=O)O [Histidine]
8 | 13 | C[C@@H](O)[C@H](N)C(=O)O [Threonine]
